Laboratory results published in patent US20140322151A1, “Use Of Isosorbide Caprylates/Caprates In Deodorants And Antiperspirants” (CLARIANT INTERNATIONAL LTD, priority 2011, published 2014).

System: axillary body odor
Test: 48-hour sniff test: reduction in body odor after single application of roll-on deodorant base formulation
Format: in vivo, human
Details: base formulation I
Procedure: To determine the reduction in body odor, the following base formulations for roll-on deodorants were used.
Various substances active against body odor were incorporated into the base formulations, for example as a further constituent of component D. These were the following substances:
To determine the reduction in body odor, the deodorizing action was carried out in the 48-hour sniff test, for which the procedure is as follows:
20 subjects are selected according to the following criteria: • female and male • at least 18 years old • nonsmokers • clinically healthy • readily detectable auxiliary body odor under both armpits
The two armpits of the subjects are preconditioned over several days, i.e. no kind of antiperspirants and deodorants are used and a pH-skin-neutral, unperfumed liquid soap is used.
On the 20 pretreated subjects, in the left or right axilla, after a sing application of 250-300 mg of the base formulation comprising active substances against body odor in the component D, three olfactory experts evaluate the axillary body odor and product scent as to intensity before and after treatment over a total of 48 hours.
The opposite axilla is not treated and serves as a standard for determining the relative intensity decrease in axillary body odor compared to the axilla which has been treated with the base formulation comprising active substances against body odor in component D.
As well as the starting value directly before the single application (after 0 hours) and the end value 48 hours after the single application, the intensity of the axillary body odor and product scent is also evaluated after 24 hours. The intensity of the body odor or perfume scent was assessed by the three olfactory experts according to the following scale: • 1=not detectable • 2=slightly detectable • 3=detectable • 4=strongly detectable • 5=very strongly detectable
Comparing the intensities of the body odor (or perfume scent) from the treated axilla and the untreated axilla gives, by virtue of the formula below, the relative intensity decrease in axillary body odor as a result of a single application of 250-300 mg of the base formulation comprising active substances against body odor in component D.

Compound	Result after 24 hours (relative intensity decrease in axillary body odor) (24 hours, 0.1% by weight, 5% by weight propylene glycol as solubilizer) [%]	Result after 48 hours (relative intensity decrease in axillary body odor) (48 hours, 0.1% by weight, 5% by weight propylene glycol as solubilizer) [%]	Result after 24 hours (relative intensity decrease in axillary body odor) (24 hours after single application, 7.6% by weight) [%]	Result after 48 hours (relative intensity decrease in axillary body odor) (48 hours after single application, 7.6% by weight) [%]
Cc1cc(CC(C)CC(C)(C)C)n(O)c(=O)c1 (stereo not shown) [Piroctonol]	15	10	–	–
CCCCCCC(O)CO (stereo not shown) [octanediol]	–	–	18	13
